Experimental data published in patent publication US10449245B2 (priority 2014, dated 2019).
“And” between values parts separate entries of the source, which are not always exact repeats. Identical values can stand only once.

Test system: HIV-1
Test: HIV transcription as cell-associated unspliced HIV-1 RNA in CD4+ T cells (digital droplet PCR), REDUC Part A
Format: in vivo, human
Conditions: for CA US HIV RNA: individual subjects 1101, 1102, 1103, 1105, 1106, 1107 = c1-c6; for CA US HIV RNA / CA US HIV RNA, Mean: romidepsin 5 mg/m^2 i.v. days 0, 7, 14; for CA US HIV RNA, Mean: mean of subjects
Procedure: Part A of the clinical study contained three phases. […] Second, a viral reactivation phase of 3 weeks (visit 2 to visit 7) consisting of one cycle of romidepsin infusions at a dosing of 5 mg/m^2 administered intravenously over a 4 hour period. De-escalation down to 2.5 mg/m^2 was planned in case of dose-limiting toxicity was observed. Romidepsin was infused on days 0, 7, and 14. Third, a post-activation phase of ˜9 weeks (visit 8 to visit 11) to assess the effect of romidepsin on the size of latent HIV-1I reservoir.
HIV transcription was measured as copies of cell-associated unspliced HIV-1 RNA/106 CD4+ T cells using digital droplet PCR. CD4+ T-cells were isolated from PBMCs using Miltenyi Biotec negative bead separation kit (CD4 T cell isolation, #130-096-533) as described with LD separation columns, lysed (Lysis buffer from Qiagen DNA/RNA extraction kit), and stored ad −80° C. until extraction of RNA and DNA (Allprep isolation kit, Qiagen). Reverse transcription, amplification and quantitation of cell-associated unspliced HIV RNA from HIV patients was performed as follows. In summary, HIV unspliced RNA was detected on the BioRad QX100 droplet digital platform using a defined primer/probe set and related to total cell input by quantitation of the IPO8 (Importin 8) and TBP (Tata Binding Protein) gene transcription. A mixture of 11.5 μl patient extracted mRNA in nuclease-free dH, 1 μl 10 mM dNTP U1240 (Promega), 0.5 μl 3 μg/μl Random hexamers (Applied Biosystems) and 0.5 μl of 0.5 μg/μl Oligo(dT)12-18 Primer (Invitrogen) was prepared, incubated at 65° C. for 5 min, and then immediately on ice for 5 min. First-strand cDNA production was performed by adding a mixture of 4.0 μl 5× First Strand Buffer (Invitrogen), 1.0 μl 0.1M DTT (Invitrogen), 0.5 μl RNAseOUT RNAse inhibitor (40 U/μl, Invitrogen), 1.0 μl Superscript III Reverse Transcriptase (200 U/μl, Invitrogen) for a total reaction volume of 20 μl and incubating at 42° C. for 45 min, then 80° C. for 15 min in a PCR machine. The reaction was held at 4° C. or on ice until performing the downstream assay. […] To adjust for the total cellular input in each sample, relative copy numbers were normalized to two human endogenous control genes TBP PL (VIC) assay ID: Hs00183533_m1 and IPO8 (FAM) assay ID: Hs00427620_m1 (TaqMan gene expression assay, LifeTechnologies, Denmark). All HIV RT samples were run in six replicates while the reference genes were assayed in duplicate. The PCR reaction mixture was loaded into the BioRad QX-100 emulsification device fractionating each sample into 20,000 nanoliter-sized droplets following the manufacturer's instructions. PCR cycling conditions were as follows: 95° C. for 10 min, followed by 40 cycles of a 30 second denaturation at 95° C. followed by a 59° C. extension for 60 seconds and a final 10 minutes at 98° C. After cycling droplets were subsequently read automatically by the QX100 droplet reader (BioRad) and the data was analyzed with the QuantaSoft™ analysis software (BioRad).

[1] = visit 1 (day −21, pre-treatment)
[2] = visit 2A (day 0, pre-treatment)

## C/C=C1\NC(=O)[C@H]2CSSCC/C=C/[C@H](CC(=O)N[C@H](C(C)C)C(=O)N2)OC(=O)[C@H](C(C)C)NC1=O [romidepsin, (1S,4S,7Z,10S,16E,21R)-7-ethylidene-4,21-bis(1-methylethyl)-2-oxa-12,13-dithia-5,8,20,23-tetraazabicyclo[8.7.6]tricos-16-ene-3,6,9,19,22-pentone]
5 mg/m^2 romidepsin, patients on cART
  HIV reactivation: successfully able to reactivate HIV in 6 patients
After third infusion, p=0.03, Wilcoxon
  HIV-1 transcription (cell-associated un-spliced HIV-1 RNA), fold range increase from baseline: 2.4-5.0 fold
As a result of romidepsin infusion
  cell-associated un-spliced HIV RNA, change: significantly increased
[1]
  CA US HIV RNA: 5.4 HIV RNA copies/10^6 CD4+ T cel and 19.7 HIV RNA copies/10^6 CD4+ T cel and 9.7 HIV RNA copies/10^6 CD4+ T cel and 4.8 HIV RNA copies/10^6 CD4+ T cel and 15.9 HIV RNA copies/10^6 CD4+ T cel and 8.7 HIV RNA copies/10^6 CD4+ T cel
  CA US HIV RNA, Mean: 10.7 HIV RNA copies/10^6 CD4+ T cel
[2]
  CA US HIV RNA: 13.3 HIV RNA copies/10^6 CD4+ T cel and 16.8 HIV RNA copies/10^6 CD4+ T cel and 7.4 HIV RNA copies/10^6 CD4+ T cel and 14.5 HIV RNA copies/10^6 CD4+ T cel and 4.5 HIV RNA copies/10^6 CD4+ T cel
  CA US HIV RNA, Mean: 11.3 HIV RNA copies/10^6 CD4+ T cel
Visit 2B (day 0 + 4 h)
  CA US HIV RNA: 23.0 HIV RNA copies/10^6 CD4+ T cel and 21.7 HIV RNA copies/10^6 CD4+ T cel and 15.7 HIV RNA copies/10^6 CD4+ T cel and 6.2 HIV RNA copies/10^6 CD4+ T cel and 18.7 HIV RNA copies/10^6 CD4+ T cel and 7.6 HIV RNA copies/10^6 CD4+ T cel
  CA US HIV RNA, Mean: 15.5 HIV RNA copies/10^6 CD4+ T cel
Visit 3 (day 1)
  CA US HIV RNA: 16.7 HIV RNA copies/10^6 CD4+ T cel and 33.8 HIV RNA copies/10^6 CD4+ T cel and 9.5 HIV RNA copies/10^6 CD4+ T cel and 7.3 HIV RNA copies/10^6 CD4+ T cel and 29.4 HIV RNA copies/10^6 CD4+ T cel and 10.3 HIV RNA copies/10^6 CD4+ T cel
  CA US HIV RNA, Mean: 17.8 HIV RNA copies/10^6 CD4+ T cel
Visit 4 (day 3)
  CA US HIV RNA: 26.4 HIV RNA copies/10^6 CD4+ T cel and 36.2 HIV RNA copies/10^6 CD4+ T cel and 7.5 HIV RNA copies/10^6 CD4+ T cel and 6.8 HIV RNA copies/10^6 CD4+ T cel and 12.1 HIV RNA copies/10^6 CD4+ T cel and 6.6 HIV RNA copies/10^6 CD4+ T cel
  CA US HIV RNA, Mean: 15.9 HIV RNA copies/10^6 CD4+ T cel
Visit 5A (day 7)
  CA US HIV RNA: 12.5 HIV RNA copies/10^6 CD4+ T cel and 13.7 HIV RNA copies/10^6 CD4+ T cel and 11.3 HIV RNA copies/10^6 CD4+ T cel and 7.6 HIV RNA copies/10^6 CD4+ T cel and 18.9 HIV RNA copies/10^6 CD4+ T cel and 6.6 HIV RNA copies/10^6 CD4+ T cel
  CA US HIV RNA, Mean: 11.8 HIV RNA copies/10^6 CD4+ T cel
Visit 5B (day 7 + 4 h)
  CA US HIV RNA: 33.7 HIV RNA copies/10^6 CD4+ T cel and 43.3 HIV RNA copies/10^6 CD4+ T cel and 24.8 HIV RNA copies/10^6 CD4+ T cel and 24.0 HIV RNA copies/10^6 CD4+ T cel and 45.2 HIV RNA copies/10^6 CD4+ T cel
  CA US HIV RNA, Mean: 34.2 HIV RNA copies/10^6 CD4+ T cel
Visit 6 (day 10)
  CA US HIV RNA: 21.3 HIV RNA copies/10^6 CD4+ T cel and 29.0 HIV RNA copies/10^6 CD4+ T cel and 10.4 HIV RNA copies/10^6 CD4+ T cel and 9.1 HIV RNA copies/10^6 CD4+ T cel and 14.4 HIV RNA copies/10^6 CD4+ T cel and 7.9 HIV RNA copies/10^6 CD4+ T cel
  CA US HIV RNA, Mean: 15.3 HIV RNA copies/10^6 CD4+ T cel
Visit 7A (day 14)
  CA US HIV RNA: 13.3 HIV RNA copies/10^6 CD4+ T cel and 24.2 HIV RNA copies/10^6 CD4+ T cel and 9.9 HIV RNA copies/10^6 CD4+ T cel and 6.0 HIV RNA copies/10^6 CD4+ T cel and 18.1 HIV RNA copies/10^6 CD4+ T cel
  CA US HIV RNA, Mean: 14.3 HIV RNA copies/10^6 CD4+ T cel
Visit 7B (day 14 + 4 h)
  CA US HIV RNA: 36.5 HIV RNA copies/10^6 CD4+ T cel and 51.9 HIV RNA copies/10^6 CD4+ T cel and 21.0 HIV RNA copies/10^6 CD4+ T cel and 76.0 HIV RNA copies/10^6 CD4+ T cel and 20.5 HIV RNA copies/10^6 CD4+ T cel
  CA US HIV RNA, Mean: 41.2 HIV RNA copies/10^6 CD4+ T cel
Visit 8 (day 17)
  CA US HIV RNA: 17.4 HIV RNA copies/10^6 CD4+ T cel and 17.8 HIV RNA copies/10^6 CD4+ T cel and 4.2 HIV RNA copies/10^6 CD4+ T cel and 14.9 HIV RNA copies/10^6 CD4+ T cel and 8.9 HIV RNA copies/10^6 CD4+ T cel
  CA US HIV RNA, Mean: 12.7 HIV RNA copies/10^6 CD4+ T cel
Visit 9 (day 21)
  CA US HIV RNA: 16.4 HIV RNA copies/10^6 CD4+ T cel and 19.0 HIV RNA copies/10^6 CD4+ T cel and 4.6 HIV RNA copies/10^6 CD4+ T cel and 5.2 HIV RNA copies/10^6 CD4+ T cel and 11.1 HIV RNA copies/10^6 CD4+ T cel
  CA US HIV RNA, Mean: 11.3 HIV RNA copies/10^6 CD4+ T cel
Visit 10 (day 56)
  CA US HIV RNA: 17.9 HIV RNA copies/10^6 CD4+ T cel and 25.0 HIV RNA copies/10^6 CD4+ T cel and 7.6 HIV RNA copies/10^6 CD4+ T cel and 6.2 HIV RNA copies/10^6 CD4+ T cel and 16.8 HIV RNA copies/10^6 CD4+ T cel and 9.3 HIV RNA copies/10^6 CD4+ T cel
